Assay results: patent US20190031618A1, “BENZIMIDAZOLE DERIVATIVES USEFUL AS CB-1 INVERSE AGONISTS” (Janssen Pharmaceutica NV, priority 2015, published 2019)

Experiments:
Assay type in all cases: in vivo
DIO mice [1] = assay: Chronic DIO Mouse: oral glucose tolerance test; details: for Oral Glucose Tolerance Test Blood Glucose AUC: day 23
Method: (§1) DIO mice received vehicle, test compound (@ 1, 3, 10, and 30 mg/kg) daily for 26 days. At the end of the experiment, the mice were euthanized and blood and tissues were collected.
(§2) An insulin tolerance test (0.7 U/kg Humulin, ip) was performed on day 21 after a 4 hour food removal. Blood glucose was measured at 0, 15, 30, 60 and 120 minutes after insulin. After an overnight fast, an oral glucose tolerance test (2 g/kg glucose) was performed on day 23. Blood glucose was measured at 0, 30, 60 and 120 minutes after glucose challenge.
(§3) Blood glucose was measured from the tail vein with a Lifescan glucometer. Plasma insulin was measured with an ELISA or HTRF kit (Cisbio). Plasma parameters were measured with an Olympus clinical chemistry analyzer.

DIO mice [2] = assay: Chronic DIO Mouse: insulin tolerance test; details: for Insulin Tolerance Test Blood Glucose AUC (Std Err): day 21
Method: as §1, §2, §3

DIO mice [3] = assay: Chronic DIO Mouse: food intake, body weight, plasma insulin; details: DIO mice
Method: Male 14-20-week old diet-induced obese mice are ordered from Taconic. Mice were started on a 60% fat diet (D12492, Research Diets, New Brunswick, N.J.) at 6 weeks of age. Mice are single-housed.
as §1
Body weight and food weight (food intake) were monitored daily for days 1-5 and twice weekly thereafter.
as §3

O=C(O)c1cccc(CN2CCC(n3c(C4CC4)nc4ccc(C(c5ccc(Cl)cc5)c5ccc(Cl)cc5)cc43)CC2)c1 [Example 148]
Oral Glucose Tolerance Test Blood Glucose AUC (DIO mice [1]; 1 mg/kg daily): 19362 mg·min/dL
Oral Glucose Tolerance Test Mean Blood Glucose (DIO mice [1]; 1 mg/kg daily, day 23, 0 min after glucose): 139.90 mg/dL
Oral Glucose Tolerance Test Mean Blood Glucose (DIO mice [1]; 1 mg/kg daily, day 23, 30 min after glucose): 179.2 mg/dL
Oral Glucose Tolerance Test Mean Blood Glucose (DIO mice [1]; 1 mg/kg daily, day 23, 60 min after glucose): 168.5 mg/dL
Oral Glucose Tolerance Test Mean Blood Glucose (DIO mice [1]; 1 mg/kg daily, day 23, 120 min after glucose): 143.5 mg/dL
Oral Glucose Tolerance Test Blood Glucose AUC (DIO mice [1]; 3 mg/kg daily): 19705 mg·min/dL
Oral Glucose Tolerance Test Mean Blood Glucose (DIO mice [1]; 3 mg/kg daily, day 23, 0 min after glucose): 154.89 mg/dL
Oral Glucose Tolerance Test Mean Blood Glucose (DIO mice [1]; 3 mg/kg daily, day 23, 30 min after glucose): 153.11 mg/dL
Oral Glucose Tolerance Test Mean Blood Glucose (DIO mice [1]; 3 mg/kg daily, day 23, 60 min after glucose): 183.89 mg/dL
Oral Glucose Tolerance Test Mean Blood Glucose (DIO mice [1]; 3 mg/kg daily, day 23, 120 min after glucose): 150.44 mg/dL
Oral Glucose Tolerance Test Blood Glucose AUC (DIO mice [1]; 10 mg/kg daily): 19740 mg·min/dL
Oral Glucose Tolerance Test Mean Blood Glucose (DIO mice [1]; 10 mg/kg daily, day 23, 0 min after glucose): 141.60 mg/dL
Oral Glucose Tolerance Test Mean Blood Glucose (DIO mice [1]; 10 mg/kg daily, day 23, 30 min after glucose): 190.1 mg/dL
Oral Glucose Tolerance Test Mean Blood Glucose (DIO mice [1]; 10 mg/kg daily, day 23, 60 min after glucose): 176.2 mg/dL
Oral Glucose Tolerance Test Mean Blood Glucose (DIO mice [1]; 10 mg/kg daily, day 23, 120 min after glucose): 132.8 mg/dL
Oral Glucose Tolerance Test Blood Glucose AUC (DIO mice [1]; 30 mg/kg daily): 19276.5 mg·min/dL
Oral Glucose Tolerance Test Mean Blood Glucose (DIO mice [1]; 30 mg/kg daily, day 23, 0 min after glucose): 125.30 mg/dL
Oral Glucose Tolerance Test Mean Blood Glucose (DIO mice [1]; 30 mg/kg daily, day 23, 30 min after glucose): 184.5 mg/dL
Oral Glucose Tolerance Test Mean Blood Glucose (DIO mice [1]; 30 mg/kg daily, day 23, 60 min after glucose): 179 mg/dL
Oral Glucose Tolerance Test Mean Blood Glucose (DIO mice [1]; 30 mg/kg daily, day 23, 120 min after glucose): 126.9 mg/dL
Insulin Tolerance Test Blood Glucose AUC (Std Err) (DIO mice [2]; 1 mg/kg daily): 19606.5 mg·min/dL
Insulin Tolerance Test Mean Blood Glucose (Std Err) (DIO mice [2]; 1 mg/kg daily, day 21, 0 min after insulin): 194.8 mg/dL
Insulin Tolerance Test Mean Blood Glucose (Std Err) (DIO mice [2]; 1 mg/kg daily, day 21, 15 min after insulin): 193.3 mg/dL
Insulin Tolerance Test Mean Blood Glucose (Std Err) (DIO mice [2]; 1 mg/kg daily, day 21, 30 min after insulin): 155 mg/dL
Insulin Tolerance Test Mean Blood Glucose (Std Err) (DIO mice [2]; 1 mg/kg daily, day 21, 60 min after insulin): 161.3 mg/dL
Insulin Tolerance Test Mean Blood Glucose (Std Err) (DIO mice [2]; 1 mg/kg daily, day 21, 120 min after insulin): 150 mg/dL
Insulin Tolerance Test Blood Glucose AUC (Std Err) (DIO mice [2]; 3 mg/kg daily): 17812.5 (1054.85) mg/dL * min
Insulin Tolerance Test Mean Blood Glucose (Std Err) (DIO mice [2]; 3 mg/kg daily, day 21, 0 min after insulin): 185.9 (6.57) mg/dL
Insulin Tolerance Test Mean Blood Glucose (Std Err) (DIO mice [2]; 3 mg/kg daily, day 21, 15 min after insulin): 160.9 (7.24) mg/dL
Insulin Tolerance Test Mean Blood Glucose (Std Err) (DIO mice [2]; 3 mg/kg daily, day 21, 30 min after insulin): 138.9 (9.10) mg/dL
Insulin Tolerance Test Mean Blood Glucose (Std Err) (DIO mice [2]; 3 mg/kg daily, day 21, 60 min after insulin): 150.9 (11.66) mg/dL
Insulin Tolerance Test Mean Blood Glucose (Std Err) (DIO mice [2]; 3 mg/kg daily, day 21, 120 min after insulin): 136.3 (9.51) mg/dL
Insulin Tolerance Test Blood Glucose AUC (Std Err) (DIO mice [2]; 10 mg/kg daily): 17930.25 (556.44) mg/dL * min
Insulin Tolerance Test Mean Blood Glucose (Std Err) (DIO mice [2]; 10 mg/kg daily, day 21, 0 min after insulin): 168.8 (7.13) mg/dL
Insulin Tolerance Test Mean Blood Glucose (Std Err) (DIO mice [2]; 10 mg/kg daily, day 21, 15 min after insulin): 172.6 (9.66) mg/dL
Insulin Tolerance Test Mean Blood Glucose (Std Err) (DIO mice [2]; 10 mg/kg daily, day 21, 30 min after insulin): 139.1 (7.03) mg/dL
Insulin Tolerance Test Mean Blood Glucose (Std Err) (DIO mice [2]; 10 mg/kg daily, day 21, 60 min after insulin): 146.7 (5.80) mg/dL
Insulin Tolerance Test Mean Blood Glucose (Std Err) (DIO mice [2]; 10 mg/kg daily, day 21, 120 min after insulin): 144.8 (5.86) mg/dL
Insulin Tolerance Test Blood Glucose AUC (Std Err) (DIO mice [2]; 30 mg/kg daily): 14575.5 mg·min/dL
Insulin Tolerance Test Mean Blood Glucose (Std Err) (DIO mice [2]; 30 mg/kg daily, day 21, 0 min after insulin): 143 mg/dL
Insulin Tolerance Test Mean Blood Glucose (Std Err) (DIO mice [2]; 30 mg/kg daily, day 21, 15 min after insulin): 147.6 mg/dL
Insulin Tolerance Test Mean Blood Glucose (Std Err) (DIO mice [2]; 30 mg/kg daily, day 21, 30 min after insulin): 119.8 mg/dL
Insulin Tolerance Test Mean Blood Glucose (Std Err) (DIO mice [2]; 30 mg/kg daily, day 21, 60 min after insulin): 121.3 mg/dL
Insulin Tolerance Test Mean Blood Glucose (Std Err) (DIO mice [2]; 30 mg/kg daily, day 21, 120 min after insulin): 104.5 mg/dL
Mean Body Weight (Std Err) (DIO mice [3]; 1 mg/kg daily, Day 0): 42.03 (0.80) Grams
Mean Body Weight (Std Err) (DIO mice [3]; 1 mg/kg daily, Day 1): 42.63 (0.79) Grams
Mean Body Weight (Std Err) (DIO mice [3]; 1 mg/kg daily, Day 2): 42.56 (0.86) Grams
Mean Body Weight (Std Err) (DIO mice [3]; 1 mg/kg daily, Day 3): 42.46 (0.91) Grams
Mean Body Weight (Std Err) (DIO mice [3]; 1 mg/kg daily, Day 4): 42.26 (0.87) Grams
Mean Body Weight (Std Err) (DIO mice [3]; 1 mg/kg daily, Day 5): 42.31 (0.81) Grams
Mean Body Weight (Std Err) (DIO mice [3]; 1 mg/kg daily, Day 8): 41.62 (0.79) Grams
Mean Body Weight (Std Err) (DIO mice [3]; 1 mg/kg daily, Day 11): 41.91 (0.77) Grams
Mean Body Weight (Std Err) (DIO mice [3]; 1 mg/kg daily, Day 15): 42.67 (1.02) Grams
Mean Body Weight (Std Err) (DIO mice [3]; 1 mg/kg daily, Day 18): 40.54 (1.23) Grams
Mean Body Weight (Std Err) (DIO mice [3]; 1 mg/kg daily, Day 24): 41.11 (1.30) Grams
Plasma Insulin (Std Err) (DIO mice [3]; 1 mg/kg daily, chronic study): 5.92 (0.92) ng/mL
Mean Body Weight (Std Err) (DIO mice [3]; 3 mg/kg daily, Day 0): 42.28 (0.49) Grams
Mean Body Weight (Std Err) (DIO mice [3]; 3 mg/kg daily, Day 1): 42.94 (0.45) Grams
Mean Body Weight (Std Err) (DIO mice [3]; 3 mg/kg daily, Day 2): 42.12 (0.43) Grams
Mean Body Weight (Std Err) (DIO mice [3]; 3 mg/kg daily, Day 3): 41.85 (0.47) Grams
Mean Body Weight (Std Err) (DIO mice [3]; 3 mg/kg daily, Day 4): 41.42 (0.44) Grams
Mean Body Weight (Std Err) (DIO mice [3]; 3 mg/kg daily, Day 5): 41.3 (0.36) Grams
Mean Body Weight (Std Err) (DIO mice [3]; 3 mg/kg daily, Day 8): 39.78 (0.29) Grams
Mean Body Weight (Std Err) (DIO mice [3]; 3 mg/kg daily, Day 11): 39.1 (0.41) Grams
